According to PubChem BioAssay (NCI):
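GI50: concentration for 50% inhibition of growth. TGI: total growth inhibition.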

Tests used:
Assay in all cases: growth of human tumour cells (NCI), 384-well format
ACHN renal = test system: ACHN renal
IGROV1 ovarian = test system: IGROV1 ovarian
MCF7 breast = test system: MCF7 breast
OVCAR-4 ovarian = test system: OVCAR-4 ovarian
HOP-62 NSCLC = test system: HOP-62 NSCLC
NCI-H322M lung = test system: NCI-H322M lung
OVCAR-5 ovarian = test system: OVCAR-5 ovarian
HCC-2998 colon = test system: HCC-2998 colon
A498 renal = test system: A498 renal
NCI-H460 NSCLC = test system: NCI-H460 NSCLC
SK-OV-3 ovarian = test system: SK-OV-3 ovarian
OVCAR-3 ovarian = test system: OVCAR-3 ovarian
RPMI-8226 leukemia = test system: RPMI-8226 leukemia

With `CNC(=O)c1ccc(-c2cnc3ncc(Cc4ccc5ncccc5c4)n3n2)cc1F` as the compound, how does the GI50 (ACHN renal) read?
The GI50 was > 100 µM.

And the TGI (ACHN renal)?
Its TGI is > 100 µM.

And the GI50 (IGROV1 ovarian)?
Its GI50 is > 100 µM.

And the TGI (IGROV1 ovarian)?
The TGI was > 100 µM.

What about the GI50 (MCF7 breast) of the same compound?
The GI50 was > 100 µM.

And the TGI (MCF7 breast)?
The TGI was > 100 µM.

What about the GI50 (OVCAR-4 ovarian) of the same compound?
The GI50 was > 100 µM.

What about the TGI (OVCAR-4 ovarian) of the same compound?
Its TGI is > 100 µM.

And the GI50 (HOP-62 NSCLC)?
Its GI50 is > 100 µM.

What about the TGI (HOP-62 NSCLC) of the same compound?
Its TGI is > 100 µM.

What about the GI50 (NCI-H322M lung) of the same compound?
Its GI50 is > 100 µM.

And the TGI (NCI-H322M lung)?
Its TGI is > 100 µM.

And the GI50 (OVCAR-5 ovarian)?
Its GI50 is > 100 µM.

And the TGI (OVCAR-5 ovarian)?
Its TGI is > 100 µM.

And the GI50 (HCC-2998 colon)?
The GI50 was > 100 µM.

And the TGI (HCC-2998 colon)?
Its TGI is > 100 µM.

And the GI50 (A498 renal)?
Its GI50 is > 100 µM.

What about the TGI (A498 renal) of the same compound?
Its TGI is > 100 µM.

What about the GI50 (NCI-H460 NSCLC) of the same compound?
The GI50 was > 100 µM.

And the TGI (NCI-H460 NSCLC)?
The TGI was > 100 µM.

And the GI50 (SK-OV-3 ovarian)?
The GI50 was > 100 µM.

And the TGI (SK-OV-3 ovarian)?
The TGI was > 100 µM.

And the GI50 (OVCAR-3 ovarian)?
The GI50 was > 100 µM.

What about the TGI (OVCAR-3 ovarian) of the same compound?
The TGI was > 100 µM.

And the GI50 (RPMI-8226 leukemia)?
Its GI50 is > 100 µM.

What about the TGI (RPMI-8226 leukemia) of the same compound?
The TGI was > 100 µM.
